Measured values: patent EP1401829B1, “NOVEL HETEROCYCLIC ANTIBACTERIAL COMPOUNDS” (Microbiotix, Inc., priority 2001, dated 2002)
Values after ≈ are worked out from the molar mass of the structure shown. Marks after values point to notes of the source that are not given here.

Key:
[1] = system: MSSA108; experiment: MIC against clinically relevant strains; format: cell-based; settings: Staphylococcus aureus; methicillin sensitive S. aureus strain
[2] = system: Staphylococcus aureus (Smith strain); experiment: Protection of mice from lethal intraperitoneal infection, compound given intraperitoneally; format: in vivo; settings: Swiss Webster mice, groups of five, 15 minutes after infection
Protocol: • Figures 1A and 1B. Figure 1A is a diagram of the structural formula for Compound 2 (i.e., 3-{4-[1-(1-cyclopropyl-3-carboxy-4-oxo-6-fluoro-7-quinolyl)-4-piperazinyl]butyl}-6-(3-ethyl- 4-methylanilino)uracil). • Figure 1B is a bar graph showing number of survivors in each group of five mice at 24 hours after intraperitoneal infection with 1 x 10^8 colony forming units (CFU) of Staphylococcus aureus (Smith strain) and followed 15 minutes post infection by administration of Compound 2 at a dose of 0 (Vehicle Control), 1, 3, and 10 mg of compound per kg of body weight. Vancomycin at a dose of 10 mg/kg of body weight served as a positive control for antibiotic activity. See text for details. • Figures 2A and 2B. Figure 2A is a diagram of the structural formula for Compound 10 (i.e., 3-{4-[1-(1-cyclopropyl-3-carboxy-4-oxo-6-fluoro-7-quinolyl)-4-piperazinyl]butyl}-6-(3-ethyl-4-methylanilino)uracil methanesulfonate). • Figure 2B is a bar graph showing number of survivors of a group of five mice at 24 hours after intraperitoneal infection with Staphylococcus aureus (Smith strain) as in Figure 1B, except that Compound 10 was administered to each animal at 0, 0.1, 0.3, 1.0, 3.0, and 10 mg/kg body weight at 15 minutes post infection. Controls were the same as in Figure 1B. See text for details. • Figures 3A and 3B. […] Abbreviations: cPr is cyclopropyl; Et is ethyl; dFPh is 2,4-difluorophenyl. • Figure 3B is a bar graph showing number of survivors in each group of five mice at 24 hours after intraperitoneal infection with Staphylococcus aureus (Smith strain) as in Figure 1, except that 15 minutes after infection, the mice in each group received a dose of 0.5 mg/kg of body weight of compound 10, 4, 5, 6, 7, 8, or 12. Controls were the same as in Figure 1. See text for details.
(§1) Swiss Webster mice, ca. 20 g each, were infected with Staphylococcus aureus (Smith strain) by the intraperitoneal route. Test compounds (2, 4, 5, 6, 7, 8, 10, 12) were dissolved in 10% dimethylsulfoxide in peanut oil to a concentration of 2 mg/ml. Vancomycin was used as positive control drug (i.e., protection from lethal infection). Fifteen minutes after infection, test compounds, vancomycin, or vehicle alone were given intraperitoneally to groups of five mice each. Animals were monitored for three days, and the number of mice surviving was tabulated for each treatment.

[3] = system: MRSA 1094; experiment: In vivo efficacy of Compound 70 in mouse models; set-up: species or system Staphylococcus aureus; settings: mice, 10^7 CFU/mouse + 5% Mucin, regimen 2 (t=0,2)
Protocol: as §1
(§2) Using the same basic procedure as described above, the in vivo efficacy of Compound 70 was also evaluated at various doses in mice infected with S. aureaus (Smith), MRSA 1094, Enterococcus faecalis, or vancomycin-resistant Enterococcus faecalis strain VRE 700802. […] Negative controls were mice infected that received no treatment. Mucin was employed as an adjuvant to facilitate bacterial infection in mice, where indicated.

[4] = system: enterococci or staphylococci strains, including MRSA and VRE strains; experiment: In vivo efficacy of Compound 70 in mouse models, overall statement; settings: mice; administration from distant parenteral sites (i.e., iv, sc, or im)
Protocol: as §2

[5] = system: VRE 700802; experiment: In vivo efficacy of Compound 70 in mouse models; set-up: species or system Enterococcus faecalis; settings: mice, 3x10^8 CFU/mouse + 5% Mucin
Protocol: as §1, §2

[6] = dosage range 1-10 mg/kg body weight intraperitoneally
[7] = dose 50 mg/kg, regimen 2 (t=0,2)
[8] = dose 50 mg/kg, regimen 2 (t=0,3)
[9] = dose 75 mg/kg, regimen 2 (t=0,2-)
[10] = dose 75 mg/kg, regimen 2 (t=0,3)
[11] = dose 100 mg/kg, regimen 1 (t=0)

| SMILES | MIC [1] [µg/mL] | protection of infected mice (number of survivors) [2, 6] | protection of infected mice (number of survivors) ([2]; 0.3 mg per kg body weight intraperitoneally) | protection of infected mice (number of survivors) ([2]; 1 mg/kg or higher intraperitoneally) | % Survival at 72 hours ([3]; dose 25 mg/kg) | % Survival at 72 hours ([3]; dose 50 mg/kg) | % Survival at 72 hours ([3]; dose 75 mg/kg) | activity against intra-peritoneal challenge [4] | % Survival at 72 hours [5, 7] | Mean Survival Time [5, 7] [h] | % Survival at 72 hours [5, 8] | Mean Survival Time [5, 8] [h] | % Survival at 72 hours [5, 9] | Mean Survival Time [5, 9] [h] | % Survival at 72 hours [5, 10] | Mean Survival Time [5, 10] [h] | % Survival at 72 hours [5, 11] | Mean Survival Time [5, 11] [h] |
| --- | --- | --- | --- | --- | --- | --- | --- | --- | --- | --- | --- | --- | --- | --- | --- | --- | --- | --- |
| CCc1cc(Nc2cc(=O)n(CCCCN3CCN(c4cc5c(cc4F)c(=O)c(C(=O)O)cn5C4CC4)CC3)c(=O)[nH]2)ccc1C [Compound 2, 3-{4-[1-(1-cyclopropyl-3-carboxy-4-oxo-6-fluoro-7-quinolyl)-4-piperazinyl]butyl}-6-(3-ethyl-4-methylanilino)uracil] | 0.313 (≈ 0.496 µM) | all five | – | – | – | – | – | – | – | – | – | – | – | – | – | – | – | – |
| CCc1cc(Nc2cc(=O)n(CCCCN3CCN(c4cc5c(cc4F)c(=O)c(C(=O)O)cn5C4CC4)CC3)c(=O)[nH]2)ccc1C.CS(=O)(=O)O [Compound 10, 3-{4-[1-(1-cyclopropyl-3-carboxy-4-oxo-6-fluoro-7-quinolyl)-4-piperazinyl]butyl}-6-(3-ethyl-4-methylanilino)uracil methanesulfonate] | 0.625 | provided protection in the same dosage range as Compound 2 | one of five | complete protection | – | – | – | – | – | – | – | – | – | – | – | – | – | – |
| CCc1cc(Nc2cc(=O)n(CCCCN3CCN(c4c(F)cc5c(=O)c(C(=O)O)cn(C6CC6)c5c4F)CC3C)c(=O)[nH]2)ccc1C (centres unmarked) [Compound 70, 3-{4-[1-(1-cyclopropyl-3-carboxy-4-oxo-6,8-difluoro-7-quinolyl)-3-methyl-4-piperazinyl]butyl}-6-(3-ethyl-4-methylanilino)uracil] | – | – | – | – | 0% (0/5) | 55% (11/20)* | 80% (4/5) | dose-related activity | 10% (1/10) | 45 | 0% (0/5) | 35 | 0% (0/5) | 50 | 40% (2/5) | 50 | 0% (0/5) | 34 |
